Results on 16 molecules are retold here after patent US4293489A, “Derivatives of A-30912A nucleus” (Eli Lilly and Company, priority 1980, dated 1981).

For test [1], the system named is Candida albicans A-26. As to the kind of experiment: Agar plate disc diffusion test, MIC per disc. To be noted: 0.1M sodium borate, pH 7.5, 24 hours, 30° C. It is filed as cell-based. As to the method:
(§1) Tables 10 and 11 give the results of the testing in vitro of the compounds of Examples 3 and 4 by agar-plate disc-diffusion methods. In Table 10 activity is measured by the size (diameter in mm) of the observed zone of inhibition of the microorganism produced by the test compound. In Table 11, activity is measured by the minimal inhibitory concentration (MIC) of the substance (μg/disc) required to inhibit growth of the test organism. Table 12 gives the results of the testing in vitro of the p-(n-octyloxy)benzoyl derivative of A30912A nucleus [Formula III, R^1 is p-(n-octyloxy)benzoyl] against five strains of Candida albicans by the agar dilution method. In Table 12 activity is measured by the minimal inhibitory concentration (MIC) of the substance (μg/ml) required to inhibit the test organism.
(§2) ^(a) Compounds were suspended in 0.1M sodium borate solution, pH 7.5.
(§3) The compounds were tested at 20 μg/disc at top level and at twofold
(§4) dilutions until end points were reached. Incubation: 24 hours; 30°
In general terms: Agar diffusion results depend on both activity and mobility in agar.

The test system of test [2] is Trychophyton mentagrophyes #6. The test is described as follows: Agar plate disc diffusion test, MIC per disc. Conditions: 0.1M sodium borate, pH 7.5, 24 hours, 30° C., * measurable zones with regrowth of organism around disc. The format is cell-based, Trichophyton mentagrophytes. As to the method: as §1, §2, §3, §4
*Measurable zones of inhibition with regrowth of organism around disc.

Molecules are shown by their SMILES. Starred links: 1 amine or outer side, 2 acyl side, 3 side chain; linkers in the order of their positions; H or OH if unused. Positions of bridges follow the written chain, without caps; N, C: chain ends. Non-standard residues stand in square brackets, D forms with d. Residues, ends and D or L forms follow the SMILES beside them. *: point of attachment. Orn(4R-OH,5R-OH) = O=C([C@H](C[C@@H](O)[C@@H](O)N[*:3])N[*:1])[*:2]; hTyr(3S-OH,4S-OH) = N[C@H](C(=O)O)[C@H](O)[C@@H](O)c1ccc(O)cc1; Pro(3S-OH,4S-Me) = C[C@H]1CN[C@H](C(=O)O)[C@H]1O; X2 = CCCCCCCCCCCCCCS(=O)(=O)c1ccc(C(=O)*)cc1; Benzoyl(4-octyl) = CCCCCCCCc1ccc(C(=O)*)cc1; X5 = CCCCCCCCCCCCS(=O)(=O)c1ccc(C(=O)*)cc1; X22 = CCCCCCCCCCCCOc1ccc(CCC(=O)*)cc1; X18 = CCCCCCCCCCCCOc1ccc(CC(=O)*)cc1; X10 = CCCCCCCCCCCCOc1cccc(C(=O)*)c1; X16 = CCCCCCCCOc1ccc(C=CC(=O)*)cc1; X11 = CCCCCCCCOc1ccc(OCC(=O)*)cc1; X21 = CCCCCCCCOc1ccc(CCC(=O)*)cc1; Hyp = O=C(O)[C@@H]1C[C@@H](O)CN1; X15 = CCCCCCCCOc1cccc(CC(=O)*)c1; X19 = CCCCCCOc1ccc(C=CC(=O)*)cc1; X9 = CCCCCCCCCCOc1cccc(C(=O)*)c1; X12 = CCCCCCOc1ccc(CCC(=O)*)cc1; X13 = CCCCCCCCOc1cccc(C(=O)*)c1; X14 = CCCCCCOc1ccc(C(=O)*)cc1; X17 = CCCCOc1ccc(CCC(=O)*)cc1 Some results are limits rather than exact numbers.

As for `CCCCCCCCCCCCS(=O)(=O)c1ccc(C(=O)N[C@H]2C[C@@H](O)[C@@H](O)NC(=O)[C@@H]3[C@@H](O)[C@@H](C)CN3C(=O)[C@H]([C@@H](C)O)NC(=O)[C@H]([C@H](O)[C@@H](O)c3ccc(O)cc3)NC(=O)[C@@H]3C[C@@H](O)CN3C(=O)[C@H]([C@@H](C)O)NC2=O)cc1` [drawing 125] (X5-[Orn(4R-OH,5R-OH)]T[Hyp][hTyr(3S-OH,4S-OH)]T[Pro(3S-OH,4S-Me)]; lactam 1-C), the MIC was 0.625 μg/disc in test [1] and 0.078 μg/disc in test [2].
`CCCCCCCCCCCCCCS(=O)(=O)c1ccc(C(=O)N[C@H]2C[C@@H](O)[C@@H](O)NC(=O)[C@@H]3[C@@H](O)[C@@H](C)CN3C(=O)[C@H]([C@@H](C)O)NC(=O)[C@H]([C@H](O)[C@@H](O)c3ccc(O)cc3)NC(=O)[C@@H]3C[C@@H](O)CN3C(=O)[C@H]([C@@H](C)O)NC2=O)cc1` [drawing 126] (X2-[Orn(4R-OH,5R-OH)]T[Hyp][hTyr(3S-OH,4S-OH)]T[Pro(3S-OH,4S-Me)]; lactam 1-C): the MIC in test [1] was 0.625 μg/disc; in test [2], 0.039 μg/disc.
In the same order, the values of `CCCCCCCCOc1cccc(C(=O)N[C@H]2C[C@@H](O)[C@@H](O)NC(=O)[C@@H]3[C@@H](O)[C@@H](C)CN3C(=O)[C@H]([C@@H](C)O)NC(=O)[C@H]([C@H](O)[C@@H](O)c3ccc(O)cc3)NC(=O)[C@@H]3C[C@@H](O)CN3C(=O)[C@H]([C@@H](C)O)NC2=O)c1` [drawing 127] (X13-[Orn(4R-OH,5R-OH)]T[Hyp][hTyr(3S-OH,4S-OH)]T[Pro(3S-OH,4S-Me)]; lactam 1-C) are 10 μg/disc and > 40 μg/disc.
For `CCCCCCCCCCOc1cccc(C(=O)N[C@H]2C[C@@H](O)[C@@H](O)NC(=O)[C@@H]3[C@@H](O)[C@@H](C)CN3C(=O)[C@H]([C@@H](C)O)NC(=O)[C@H]([C@H](O)[C@@H](O)c3ccc(O)cc3)NC(=O)[C@@H]3C[C@@H](O)CN3C(=O)[C@H]([C@@H](C)O)NC2=O)c1` [drawing 128] (X9-[Orn(4R-OH,5R-OH)]T[Hyp][hTyr(3S-OH,4S-OH)]T[Pro(3S-OH,4S-Me)]; lactam 1-C) the same measures were 2.5 μg/disc and > 40 μg/disc.
As for `CCCCCCCCCCCCOc1cccc(C(=O)N[C@H]2C[C@@H](O)[C@@H](O)NC(=O)[C@@H]3[C@@H](O)[C@@H](C)CN3C(=O)[C@H]([C@@H](C)O)NC(=O)[C@H]([C@H](O)[C@@H](O)c3ccc(O)cc3)NC(=O)[C@@H]3C[C@@H](O)CN3C(=O)[C@H]([C@@H](C)O)NC2=O)c1` [drawing 129] (X10-[Orn(4R-OH,5R-OH)]T[Hyp][hTyr(3S-OH,4S-OH)]T[Pro(3S-OH,4S-Me)]; lactam 1-C), the MIC in test [1] was 2.5 μg/disc; in test [2], > 40 μg/disc.
`CCCCCCOc1ccc(C(=O)N[C@H]2C[C@@H](O)[C@@H](O)NC(=O)[C@@H]3[C@@H](O)[C@@H](C)CN3C(=O)[C@H]([C@@H](C)O)NC(=O)[C@H]([C@H](O)[C@@H](O)c3ccc(O)cc3)NC(=O)[C@@H]3C[C@@H](O)CN3C(=O)[C@H]([C@@H](C)O)NC2=O)cc1` [drawing 131] (X14-[Orn(4R-OH,5R-OH)]T[Hyp][hTyr(3S-OH,4S-OH)]T[Pro(3S-OH,4S-Me)]; lactam 1-C): the MIC in test [1] was found to be 2.5 μg/disc; in test [2], 0.312 μg/disc.
For the molecule `CCCCCCCCc1ccc(C(=O)N[C@H]2C[C@@H](O)[C@@H](O)NC(=O)[C@@H]3[C@@H](O)[C@@H](C)CN3C(=O)[C@H]([C@@H](C)O)NC(=O)[C@H]([C@H](O)[C@@H](O)c3ccc(O)cc3)NC(=O)[C@@H]3C[C@@H](O)CN3C(=O)[C@H]([C@@H](C)O)NC2=O)cc1` [drawing 133] ({Benzoyl(4-octyl)}-[Orn(4R-OH,5R-OH)]T[Hyp][hTyr(3S-OH,4S-OH)]T[Pro(3S-OH,4S-Me)]; lactam 1-C), the MIC is 0.625 μg/disc in test [1] and 0.156 μg/disc in test [2].
For `CCCCOc1ccc(CCC(=O)N[C@H]2C[C@@H](O)[C@@H](O)NC(=O)[C@@H]3[C@@H](O)[C@@H](C)CN3C(=O)[C@H]([C@@H](C)O)NC(=O)[C@H]([C@H](O)[C@@H](O)c3ccc(O)cc3)NC(=O)[C@@H]3C[C@@H](O)CN3C(=O)[C@H]([C@@H](C)O)NC2=O)cc1` [drawing 134] (X17-[Orn(4R-OH,5R-OH)]T[Hyp][hTyr(3S-OH,4S-OH)]T[Pro(3S-OH,4S-Me)]; lactam 1-C) the same measures were 20 μg/disc and 1.25 μg/disc.
In the same order, the values of `CCCCCCOc1ccc(CCC(=O)N[C@H]2C[C@@H](O)[C@@H](O)NC(=O)[C@@H]3[C@@H](O)[C@@H](C)CN3C(=O)[C@H]([C@@H](C)O)NC(=O)[C@H]([C@H](O)[C@@H](O)c3ccc(O)cc3)NC(=O)[C@@H]3C[C@@H](O)CN3C(=O)[C@H]([C@@H](C)O)NC2=O)cc1` [drawing 135] (X12-[Orn(4R-OH,5R-OH)]T[Hyp][hTyr(3S-OH,4S-OH)]T[Pro(3S-OH,4S-Me)]; lactam 1-C) are 0.625 μg/disc and 0.156 μg/disc.
For `CCCCCCCCOc1ccc(CCC(=O)N[C@H]2C[C@@H](O)[C@@H](O)NC(=O)[C@@H]3[C@@H](O)[C@@H](C)CN3C(=O)[C@H]([C@@H](C)O)NC(=O)[C@H]([C@H](O)[C@@H](O)c3ccc(O)cc3)NC(=O)[C@@H]3C[C@@H](O)CN3C(=O)[C@H]([C@@H](C)O)NC2=O)cc1` [drawing 136] (X21-[Orn(4R-OH,5R-OH)]T[Hyp][hTyr(3S-OH,4S-OH)]T[Pro(3S-OH,4S-Me)]; lactam 1-C), the MIC in test [1] came to 0.078 μg/disc; in test [2], 0.156 μg/disc.
In the same order, the values of `CCCCCCCCCCCCOc1ccc(CCC(=O)N[C@H]2C[C@@H](O)[C@@H](O)NC(=O)[C@@H]3[C@@H](O)[C@@H](C)CN3C(=O)[C@H]([C@@H](C)O)NC(=O)[C@H]([C@H](O)[C@@H](O)c3ccc(O)cc3)NC(=O)[C@@H]3C[C@@H](O)CN3C(=O)[C@H]([C@@H](C)O)NC2=O)cc1` [drawing 137] (X22-[Orn(4R-OH,5R-OH)]T[Hyp][hTyr(3S-OH,4S-OH)]T[Pro(3S-OH,4S-Me)]; lactam 1-C) are 0.312 μg/disc and 0.156 μg/disc.
In the same order, the values of `CCCCCCOc1ccc(C=CC(=O)N[C@H]2C[C@@H](O)[C@@H](O)NC(=O)[C@@H]3[C@@H](O)[C@@H](C)CN3C(=O)[C@H]([C@@H](C)O)NC(=O)[C@H]([C@H](O)[C@@H](O)c3ccc(O)cc3)NC(=O)[C@@H]3C[C@@H](O)CN3C(=O)[C@H]([C@@H](C)O)NC2=O)cc1` [drawing 139] (X19-[Orn(4R-OH,5R-OH)]T[Hyp][hTyr(3S-OH,4S-OH)]T[Pro(3S-OH,4S-Me)]; lactam 1-C) are 1.25 μg/disc and 0.156 μg/disc.
In the same order, the values of `CCCCCCCCOc1ccc(C=CC(=O)N[C@H]2C[C@@H](O)[C@@H](O)NC(=O)[C@@H]3[C@@H](O)[C@@H](C)CN3C(=O)[C@H]([C@@H](C)O)NC(=O)[C@H]([C@H](O)[C@@H](O)c3ccc(O)cc3)NC(=O)[C@@H]3C[C@@H](O)CN3C(=O)[C@H]([C@@H](C)O)NC2=O)cc1` [drawing 140] (X16-[Orn(4R-OH,5R-OH)]T[Hyp][hTyr(3S-OH,4S-OH)]T[Pro(3S-OH,4S-Me)]; lactam 1-C) are 0.156 μg/disc and 0.156 μg/disc.
On to `CCCCCCCCOc1cccc(CC(=O)N[C@H]2C[C@@H](O)[C@@H](O)NC(=O)[C@@H]3[C@@H](O)[C@@H](C)CN3C(=O)[C@H]([C@@H](C)O)NC(=O)[C@H]([C@H](O)[C@@H](O)c3ccc(O)cc3)NC(=O)[C@@H]3C[C@@H](O)CN3C(=O)[C@H]([C@@H](C)O)NC2=O)c1` [drawing 141] (X15-[Orn(4R-OH,5R-OH)]T[Hyp][hTyr(3S-OH,4S-OH)]T[Pro(3S-OH,4S-Me)]; lactam 1-C), for which the MIC in test [1] is 5 μg/disc; in test [2], 80 μg/disc.
In the same order, the values of `CCCCCCCCCCCCOc1ccc(CC(=O)N[C@H]2C[C@@H](O)[C@@H](O)NC(=O)[C@@H]3[C@@H](O)[C@@H](C)CN3C(=O)[C@H]([C@@H](C)O)NC(=O)[C@H]([C@H](O)[C@@H](O)c3ccc(O)cc3)NC(=O)[C@@H]3C[C@@H](O)CN3C(=O)[C@H]([C@@H](C)O)NC2=O)cc1` [drawing 142] (X18-[Orn(4R-OH,5R-OH)]T[Hyp][hTyr(3S-OH,4S-OH)]T[Pro(3S-OH,4S-Me)]; lactam 1-C) are 0.312 μg/disc and 0.625 μg/disc.
In the same order, the values of `CCCCCCCCOc1ccc(OCC(=O)N[C@H]2C[C@@H](O)[C@@H](O)NC(=O)[C@@H]3[C@@H](O)[C@@H](C)CN3C(=O)[C@H]([C@@H](C)O)NC(=O)[C@H]([C@H](O)[C@@H](O)c3ccc(O)cc3)NC(=O)[C@@H]3C[C@@H](O)CN3C(=O)[C@H]([C@@H](C)O)NC2=O)cc1` [drawing 145] (X11-[Orn(4R-OH,5R-OH)]T[Hyp][hTyr(3S-OH,4S-OH)]T[Pro(3S-OH,4S-Me)]; lactam 1-C) are 0.312 μg/disc and 80 μg/disc.
